The nature of the series: Zeta potential. It is filed as physicochemical. On the procedure:
In certain embodiments, the ZLC, e.g., any of Complex 2, et seq. can have a zeta potential on the order of +10 to +60, e.g., between +20 and +50. Zeta potential is measured as described below. The zeta potential indicates the degree of repulsion between adjacent, similarly charged particles in a dispersion. For molecules and particles that are small enough to be influenced by […], a high zeta potential will tend to confer stability, i.e., the particles will tend to repel one another, and the solution or dispersion will resist aggregation. When the zeta potential is low, attraction exceeds repulsion and the dispersion will break and flocculate. Here, it is desirable to have a zeta potential that is high enough in formulation to deter aggregation, but low enough to allow flocculation and blockage of the pores. […] Having a similar zeta potential, the ZLC, e.g., any of Complex 2, et seq. will behave similarly and flocculate when introduced into a pore and becomes hydrated. In contrast, zinc chloride has a zeta potential of about 0, which is much lower than current antiperspirant salts and the current disclosure.

Consider `[Cl-].[Cl-].[Zn+2]` [zinc chloride], for which the zeta potential entry is “about 0”.

These data come from patent publication US20170121351A1, “Synthesis of Zinc-Lysine Complex From Zinc Chloride” (Colgate-Palmolive Company, priority 2014, published 2017).
